Data reported in patent US20030228343A1, “Method for controlling a population of social insects using 1-arylpyrazoles or 1-heteroarylpyrazoles” (priority 1995, published 2003).

Experiments:
[1] = system: Blatella Germanica cockroaches; test: Bait pellet test on cockroaches in boxes, with later introduction of healthy cockroaches; assay type: in vivo; conditions: 2.7 g bait pellet with 1.35 mg active, bait removed after 8 hours and 15 new healthy cockroaches added
Procedure: Tests are carried out on Blatella Germanica cockroaches in boxes 36×24×14 cm in size. These boxes comprise a source of water, a shelter consisting of piled pieces of cardboard, and additional food consisting of biscuit pieces.
15 cockroaches are introduced into the box without bait.
After 24 hours, a 2.7 g pellet of bait with 1.35 mg of product of formula (I) is introduced into the box.
After a further 8 hours, the bait and the additional food are removed and 15 new healthy cockroaches are introduced.

[2] = system: Lasius niger; test: Honey bait placed near an active anthill, population destruction; assay type: in vivo; conditions: 10 g of a 0.05% dispersion in honey
Text: A watch glass containing 10 g of a 0.05% dispersion of compound A in honey is placed 20 cm from the entrance to an active anthill. The ants are of the species Lasius niger, for which the fraction of workers whose function is to collect food is in the region of 10% of the total population. The total population is estimated by a count carried out on an untreated anthill, referred to as the control, containing 10,000 individuals.
During the first 2 days, it is observed that the ants head in a column from the anthill to the watch glass, stop to take up the dispersion and then return to the anthill.
An update on the latter is then obtained by excavation.

With N#Cc1nn(-c2c(Cl)cc(C(F)(F)F)cc2Cl)c(N)c1[S+]([O-])C(F)(F)F (centres unmarked) [compound A, 5-amino-3-cyano-I-[2,6-dichloro4-(trifluoromethyl)phenyl]-4[(trifluoromethyl)sulfinyl]-IH-pyrazole] as the compound, how does the cockroaches dead ([1]; 64 hours after introduction of the bait) read?
The cockroaches dead was 98.6%.

And the cockroaches dead ([1]; after 88 hours)?
Its cockroaches dead is 100%.

What about the destruction rate ([2]; 20 cm from anthill entrance, excavation after 15 days, total population about 10,000 individuals) of the same compound?
Its destruction rate is “greater than 99%”.

What about the “surface activity around the anthill” value ([2]; after 15 days) of the same compound?
Its value is “no further surface activity”.

What about the “destruction of larvae in the anthill” value ([2]; excavation after 15 days) of the same compound?
The value was “all the larvae have been destroyed”.
